What follows are compounds tested on metabolism of retinoic acid in human breast cancer cells (assay: Inhibition of retinoic acid (RA) metabolism (Example C.1)). Settings: MCF-7 human breast cancer cells, 3H-RA as substrate; concentration needed to reduce the amount of metabolites to 50% of the control.
Type: cell-based
Outline: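 MCF-7 cells, pre-stimulated with RA the day before, incubated with ³H-RA substrate and test compound in 1% DMSO. Polar ³H-metabolites separated from unmetabolized RA and counted by scintillation. IC50 is the concentration cutting metabolite formation to 50% of control, with blank run alongside.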

| IC50 [nM] | Compound |
| --- | --- |
| 6.75 | CCCCCC(C)C(c1ccc(NC(=O)Cc2ccc(OC)c(OC)c2)cc1)n1ccnc1 (single isomer, unassigned) [Compound 385] |
| 31 | CC(=Cc1cccc(Cl)c1)C(=O)Nc1ccc(C(C(C)C)n2cncn2)cc1 (racemic) [Compound 156] |
| 0.262 | CCOc1ccc(CC(=O)Nc2ccc(C(C(CC)CC)n3cncn3)cc2)cc1 (racemic) [Compound 71] |
| 0.664 | COc1cc(CC(=O)Nc2ccc(C(C(C)N(C)C)n3ccnc3)cc2)ccc1Cl (single isomer, unassigned) [Compound 311] |
| 1.41 | CC(C)C(c1ccc(NC(=O)Nc2cc(F)ccc2F)cc1)n1ccnc1 (racemic) [Compound 728] |
| 56.9 | CC1C(C(=O)Nc2ccc(C(C(C)C)n3ccnc3)cc2)=Cc2ccccc21 (mixture of isomers) [Compound 180] |
| 3.2 | CC(C)C(c1ccc(NC(=O)Cc2ccc3c(c2)C(C)(C)CCC3(C)C)cc1)n1ccnc1 (racemic) [Compound 256] |
| > 100 | O=C(Cc1ccc(Cl)cc1)Nc1ccc(C(c2ccccc2)n2ccnc2)cc1 (centres unmarked) [Compound 357] |
| 25.4 | C/C(C(=O)Nc1ccc(C(C(C)C)n2ccnc2)cc1)=C(/c1ccccc1)c1ccco1 (racemic) [Compound 207] |
| 25.7 | C/C(=C\c1ccc2nnn(C)c2c1)C(=O)Nc1ccc(C(C(C)C)n2ccnc2)cc1 (racemic) [Compound 602] |
| 18.7 | C/C(C(=O)Nc1ccc(C(C(C)C)n2ccnc2)cc1)=C(/C)c1ccccc1 (racemic) [Compound 176] |
| > 100 | CC(C)C(c1ccc(NC(=O)Nc2cccc(F)c2)cc1)(C(C)C)n1ccnc1 [Compound 746] |
| 0.0236 | CCC(CC)C(c1ccc(NC(=O)Cc2ccc(O)cc2C)cc1)n1ccnc1 (centres unmarked) [Compound 129] |
| 52.5 | CC(C)C(c1ccc(NC(=O)C(=Cc2ccccc2)c2ccccc2)cc1)n1ccnc1 (centres unmarked) [Compound 454] |
| 7.21 | C/C(=C\c1ccccc1F)C(=O)Nc1ccc(C(C(C)C)n2ccnc2)cc1 (racemic) [Compound 585] |
| 2.59 | CC(C)C(c1ccc(NC(=O)c2cnc3ccccc3c2)cc1)n1ccnc1 (racemic) [Compound 241] |
| > 100 | Cc1nccn1C(c1ccc(NC(=O)Nc2cccc(F)c2)cc1)C(C)C (centres unmarked) [Compound 773] |
| 8.27 | CC(C)C(=O)Nc1ccc(C(C(C)C)n2ccnc2)cc1 (racemic) [Compound 209] |
| 1.09 | CCCCOc1ccc(CC(=O)Nc2ccc(C(C(CC)CC)n3ccnc3)cc2)cc1 (racemic) [Compound 96] |
| 0.0567 | COc1ccc(CC(=O)Nc2ccc(C(C(C)CN3CCCCC3)n3ccnc3)cc2)cc1OC (single isomer, unassigned) [Compound 389] |
| 14 | CC(=Cc1cccn1C)C(=O)Nc1ccc(C(C(C)C)n2ccnc2)cc1 (racemic) [Compound 605] |
| 0.27 | CCC(CC)C(c1ccc(NC(=O)Cc2ccc3c(c2)OCO3)cc1)n1cncn1 (racemic) [Compound 5] |
| 10.5 | CC(C)C(c1ccc(NC(=O)Cc2ccc(Cl)cc2)cc1)n1ccnc1 (centres unmarked) [Compound 651] |
| 1.26 | CCC(CC)C(c1ccc(NC(=O)Cc2ccc(C)c(OC)c2)cc1)n1cncn1 (single isomer, unassigned) [Compound 782] |
| 16.1 | CC(C)C(c1ccc(NC(=O)C(c2ccccc2)c2ccccc2)cc1)n1ccnc1 (racemic) [Compound 655] |
| 1.2 | CC(C)C(c1ccc(NC(=O)CSc2ccccc2)cc1)n1ccnc1 (racemic) [Compound 223] |
| 2.71 | CC(C)C(c1ccc(NC(=O)CC2(CC(=O)O)CCCC2)cc1)n1ccnc1 (racemic) [Compound 264] |
| 1.82 | CC(C(c1ccc(NC(=O)Cc2ccc3c(c2)OCO3)cc1)n1cncn1)N(C)C (single isomer, unassigned) [Compound 330] |

Each compound was assayed on Ovariectomized rats (assay: Vaginal keratinization test on ovariectomized rats (Example C.2)). Settings: estradiol undecylate induced keratinization, per os once daily on days 1-3, active dose = 50% of rats show complete suppression.
Type: in vivo
Outline: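 Ovariectomized rats given s.c. estradiol undecylate (100 μg per 100 g body weight in sesame oil), then oral compound once daily on days 1-3 (vehicle PEG 200). Vaginas assessed histologically one day after last dose; lowest active dose (mg/kg) is the dose giving complete keratinization suppression in 50% of rats.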

| Compound | LAD (lowest active dose) [mg/kg] |
| --- | --- |
| CCCCCC(C)C(c1ccc(NC(=O)Cc2ccc(OC)c(OC)c2)cc1)n1ccnc1 (single isomer, unassigned) [Compound 385] | >2.50 |
| CC(=Cc1cccc(Cl)c1)C(=O)Nc1ccc(C(C(C)C)n2cncn2)cc1 (racemic) [Compound 156] | >10.00 |
| CCOc1ccc(CC(=O)Nc2ccc(C(C(CC)CC)n3cncn3)cc2)cc1 (racemic) [Compound 71] | >5.00 |
| COc1cc(CC(=O)Nc2ccc(C(C(C)N(C)C)n3ccnc3)cc2)ccc1Cl (single isomer, unassigned) [Compound 311] | 2.50 |
| CC(C)C(c1ccc(NC(=O)Nc2cc(F)ccc2F)cc1)n1ccnc1 (racemic) [Compound 728] | 5.00 |
| CC1C(C(=O)Nc2ccc(C(C(C)C)n3ccnc3)cc2)=Cc2ccccc21 (mixture of isomers) [Compound 180] | >10.00 |
| CC(C)C(c1ccc(NC(=O)Cc2ccc3c(c2)C(C)(C)CCC3(C)C)cc1)n1ccnc1 (racemic) [Compound 256] | >2.50 |
| O=C(Cc1ccc(Cl)cc1)Nc1ccc(C(c2ccccc2)n2ccnc2)cc1 (centres unmarked) [Compound 357] | >10.00 |
| C/C(C(=O)Nc1ccc(C(C(C)C)n2ccnc2)cc1)=C(/c1ccccc1)c1ccco1 (racemic) [Compound 207] | 10.00 |
| C/C(=C\c1ccc2nnn(C)c2c1)C(=O)Nc1ccc(C(C(C)C)n2ccnc2)cc1 (racemic) [Compound 602] | >10.00 |
| C/C(C(=O)Nc1ccc(C(C(C)C)n2ccnc2)cc1)=C(/C)c1ccccc1 (racemic) [Compound 176] | >10.00 |
| CC(C)C(c1ccc(NC(=O)Nc2cccc(F)c2)cc1)(C(C)C)n1ccnc1 [Compound 746] | >5.00 |
| CCC(CC)C(c1ccc(NC(=O)Cc2ccc(O)cc2C)cc1)n1ccnc1 (centres unmarked) [Compound 129] | 2.50 |
| CC(C)C(c1ccc(NC(=O)C(=Cc2ccccc2)c2ccccc2)cc1)n1ccnc1 (centres unmarked) [Compound 454] | >20.00 |
| C/C(=C\c1ccccc1F)C(=O)Nc1ccc(C(C(C)C)n2ccnc2)cc1 (racemic) [Compound 585] | 10.00 |
| CC(C)C(c1ccc(NC(=O)c2cnc3ccccc3c2)cc1)n1ccnc1 (racemic) [Compound 241] | 10.00 |
| Cc1nccn1C(c1ccc(NC(=O)Nc2cccc(F)c2)cc1)C(C)C (centres unmarked) [Compound 773] | >10.00 |
| CC(C)C(=O)Nc1ccc(C(C(C)C)n2ccnc2)cc1 (racemic) [Compound 209] | 5.00 |
| CCCCOc1ccc(CC(=O)Nc2ccc(C(C(CC)CC)n3ccnc3)cc2)cc1 (racemic) [Compound 96] | 2.50 |
| COc1ccc(CC(=O)Nc2ccc(C(C(C)CN3CCCCC3)n3ccnc3)cc2)cc1OC (single isomer, unassigned) [Compound 389] | >2.50 |
| CC(=Cc1cccn1C)C(=O)Nc1ccc(C(C(C)C)n2ccnc2)cc1 (racemic) [Compound 605] | >10.00 |
| CCC(CC)C(c1ccc(NC(=O)Cc2ccc3c(c2)OCO3)cc1)n1cncn1 (racemic) [Compound 5] | >2.50 |
| CC(C)C(c1ccc(NC(=O)Cc2ccc(Cl)cc2)cc1)n1ccnc1 (centres unmarked) [Compound 651] | 5.00 |
| CCC(CC)C(c1ccc(NC(=O)Cc2ccc(C)c(OC)c2)cc1)n1cncn1 (single isomer, unassigned) [Compound 782] | 2.50 |
| CC(C)C(c1ccc(NC(=O)C(c2ccccc2)c2ccccc2)cc1)n1ccnc1 (racemic) [Compound 655] | >10.00 |
| CC(C)C(c1ccc(NC(=O)CSc2ccccc2)cc1)n1ccnc1 (racemic) [Compound 223] | 5.00 |
| CC(C)C(c1ccc(NC(=O)CC2(CC(=O)O)CCCC2)cc1)n1ccnc1 (racemic) [Compound 264] | >10.00 |
| CC(C(c1ccc(NC(=O)Cc2ccc3c(c2)OCO3)cc1)n1cncn1)N(C)C (single isomer, unassigned) [Compound 330] | 2.50 |
